Read-outs that look alike come from different tables or passages of the source.
Legend:
Format in all cases: in vivo
Phytophthora infestans [1] = conditions: tomato late blight, sprayed 17 h after inoculation
Phytophthora infestans [2] = conditions: tomato late blight, sprayed the day before inoculation
Plasmopara viticola = experiment: Test A: grape downy mildew, spray after inoculation, visual disease rating (% disease control); conditions: 100 = 100% disease control, 0 = no control
Text: General protocol for preparing test suspensions for Test A-C: The test compounds were first dissolved in acetone in an amount equal to 3% of the final volume and then suspended at the desired concentration (in ppm) in acetone and purified water (50/50 mix by volume) containing 250 ppm of the surfactant Trem® 014 (polyhydric alcohol esters). The resulting test suspensions were then used in Tests A-C. Spraying a 200 ppm test suspension to the point of run-off on the test plants was equivalent to a rate of 500 g/ha.
Grape seedlings were inoculated with a spore suspension of Plasmopara viticola (the causal agent of grape downy mildew) and incubated in a saturated atmosphere at 20° C. for 24 h. After a short drying period, the test suspension was sprayed to the point of run-off on the grape seedlings, which were then moved to a growth chamber at 20° C. for 5 days, after which time the grape seedling were placed back into a saturated atmosphere at 20° C. for 24 h. Upon removal, visual disease ratings were made.
Results for Tests A-C are given in Table A. In the table, a rating of 100 indicates 100% disease control and a rating of 0 indicates no disease control (relative to the controls). A dash (-) indicates no test results, “*” indicates compound was tested at 40 ppm and “**” indicates compound was tested at 10 ppm.

[3] = Cmpd No. unmarked, rate not stated in table (b1197 mentions a 200 ppm test suspension)

Molecule | Test C rating (% disease control) (Phytophthora infestans [1]; "*" compound tested at 40 ppm) [%] | Test B rating (% disease control) (Phytophthora infestans [2]; "*" compound tested at 40 ppm) [%] | Test A rating (% disease control) (Plasmopara viticola; "*" compound tested at 40 ppm) [%] | further results
CCN(CC)C(=O)N1CCC(c2nc(C3=NOC(c4ccccc4)C3)cs2)CC1 (stereo not drawn) [compound 12] | – | – | – | Test C rating (% disease control) (Phytophthora infestans [1]; [3]): 0%; Test B rating (% disease control) (Phytophthora infestans [2]; [3]): 40%; Test A rating (% disease control) (Plasmopara viticola; [3]): 8%
Cc1ccc(C)c(N=C(NO)N2CCC(c3nc(C4=NOC(c5c(F)cccc5F)C4)cs3)CC2)c1 (stereo not drawn) [compound 25] | 99 | 100 | 100 | –
Cc1cc(C(F)(F)F)nn1C(=O)C(=O)N1CCC(c2nc(C3=NOC(c4c(F)cccc4F)C3)cs2)CC1 (stereo not drawn) [compound 43] | 0 | 25 | 0 | –
CCCCCCC(=O)N1CCC(c2nc(C3=NOC(c4c(F)cccc4F)C3)cs2)CC1 (stereo not drawn) [compound 73] | 99 | 100 | 99 | –
CC(CC(=O)N1CCC(c2nc(C3=NOC(c4ccccc4F)C3)cs2)CC1)C(F)(F)F (stereo not drawn) [Example 6, 1-[4-[4-[4,5-dihydro-5-(2-fluorophenyl)-3-isoxazolyl]-2-thiazolyl]-1-piperidinyl]-4,4,4-trifluoro-3-methyl-1-butanone] | – | – | – | Test C rating (% disease control) (Phytophthora infestans [1]; [3]): 0%; Test B rating (% disease control) (Phytophthora infestans [2]; [3]): 33%; Test A rating (% disease control) (Plasmopara viticola; [3]): 0%
Cc1ccc(C)c(N=C(N)N2CCC(c3nc(C4=NOC(c5c(F)cccc5F)C4)cs3)CC2)c1 (stereo not drawn) [compound 31] | 97 | 100 | 99 | –
CCCNC(=O)N1CCC(c2nc(C3=NOC(c4ccccc4)C3)cs2)CC1 (stereo not drawn) [compound 14] | – | – | – | Test C rating (% disease control) (Phytophthora infestans [1]; [3]): 99%; Test B rating (% disease control) (Phytophthora infestans [2]; [3]): 100%; Test A rating (% disease control) (Plasmopara viticola; [3]): 88%
O=C(COCCC(F)(F)F)N1CCC(c2nc(C3=NOC(c4c(F)cccc4F)C3)cs2)CC1 (stereo not drawn) [compound 75] | – | – | – | Test C rating (% disease control) (Phytophthora infestans [1]; "**" compound tested at 10 ppm): 97%; Test B rating (% disease control) (Phytophthora infestans [2]; "**" compound tested at 10 ppm): 100%; Test A rating (% disease control) (Plasmopara viticola; "**" compound tested at 10 ppm): 100%
CN(C)C(=O)N1CCC(c2nc(C3=NOC(c4ccccc4)C3)cs2)CC1 (stereo not drawn) [compound 11] | – | – | – | Test C rating (% disease control) (Phytophthora infestans [1]; [3]): 0%; Test B rating (% disease control) (Phytophthora infestans [2]; [3]): 0%; Test A rating (% disease control) (Plasmopara viticola; [3]): 0%
CCONC(=Nc1cc(C)ccc1C)N1CCC(c2nc(C3=NOC(c4c(F)cccc4F)C3)cs2)CC1 (stereo not drawn) [compound 39] | 97 | 100 | 99 | –
Cc1ccc(C)c(N=C(N2CCOCC2)N2CCC(c3nc(C4=NOC(c5ccccc5)C4)cs3)CC2)c1 (stereo not drawn) [compound 30] | 17 | 64 | 58 | –
Cc1ccc(C)c(C(=O)C(=O)N2CCC(c3nc(C4=NOC(c5ccccc5F)C4)cs3)CC2)c1 (stereo not drawn) [compound 40] | 98 | 100 | 99 | –
4-[4-(4,5-dihydro-5-phenyl-3-isoxazoly)-2-thiazolyl]-N-pentyl-1-piperidinecarboxamide [Example 4] | 76 | 100 | 86 | –
CNC(=Nc1cc(C)ccc1C)N1CCC(c2nc(C3=NOC(c4c(F)cccc4F)C3)cs2)CC1 (stereo not drawn) [compound 35] | 26 | 86 | 0 | –
CC(C)C(O)C(=O)N1CCC(c2nc(C3=NOC(c4c(F)cccc4F)C3)cs2)CC1 (mixture of isomers) [compound 55] | – | – | – | Test C rating (% disease control) (Phytophthora infestans [1]; "**" compound tested at 10 ppm): 99%; Test B rating (% disease control) (Phytophthora infestans [2]; "**" compound tested at 10 ppm): 100%; Test A rating (% disease control) (Plasmopara viticola; "**" compound tested at 10 ppm): 10%
Cc1ccc(C)c(N=C(N(C)C)N2CCC(c3nc(C4=NOC(c5ccccc5)C4)cs3)CC2)c1 (stereo not drawn) [compound 24] | 39 | 97 | 79 | –

Molecule | Test C rating (% disease control) (Phytophthora infestans [1]; "*" compound tested at 40 ppm) [%] | Test B rating (% disease control) (Phytophthora infestans [2]; "*" compound tested at 40 ppm) [%] | Test A rating (% disease control) (Plasmopara viticola; "*" compound tested at 40 ppm) [%] | further results
4-[4-(4,5-dihydro-5-phenyl-3-isoxazolyl)-2-thiazolyl]-N-2-propen-1-yl]-1-piperidinecarbothioamide [Example 5] | 73 | 99 | 83 | –
CCOC(=O)CNC(=O)N1CCC(c2nc(C3=NOC(c4ccccc4)C3)cs2)CC1 (stereo not drawn) [compound 18] | 26 | 63 | 39 | –
O=C(C(O)Cc1ccccc1)N1CCC(c2nc(C3=NOC(c4c(F)cccc4F)C3)cs2)CC1 (mixture of isomers) [compound 50] | 0 | 87 | 0 | –
N#CCC(=O)N1CCC(c2nc(C3=NOC(c4c(F)cccc4F)C3)cs2)CC1 (stereo not drawn) [compound 63] | 92 | 100 | 94 | –
CNC(=Nc1cc(C)ccc1C)N1CCC(c2nc(C3=NOC(c4ccccc4)C3)cs2)CC1 (stereo not drawn) [compound 28] | 0 | 95 | 43 | –
CC(C)CC(O)C(=O)N1CCC(c2nc(C3=NOC(c4c(F)cccc4F)C3)cs2)CC1 (mixture of isomers) [compound 56] | 50 | 84 | 98 | –
O=C(CC1CCCC(C(F)(F)F)C1)N1CCC(c2nc(C3=NOC(c4c(F)cccc4F)C3)cs2)CC1 (stereo not drawn) [compound 76] | 0 | 67 | 66 | –
Cc1ccc(C)c(N=CN2CCC(c3nc(C4=NOC(c5ccccc5)C4)cs3)CC2)c1.Cl (stereo not drawn) [compound 21] | – | – | – | Test C rating (% disease control) (Phytophthora infestans [1]; [3]): 0%; Test B rating (% disease control) (Phytophthora infestans [2]; [3]): 95%; Test A rating (% disease control) (Plasmopara viticola; [3]): 0%
Cc1ccc(C)c(N=C(C#N)N2CCC(c3nc(C4=NOC(c5ccccc5)C4)cs3)CC2)c1 (stereo not drawn) [compound 32] | 0 | 58 | 31 | –
O=C(C(=O)N1CCC(c2nc(C3=NOC(c4c(F)cccc4F)C3)cs2)CC1)c1ccco1 (stereo not drawn) [compound 72] | 99 | 100 | 100 | –
CC(=O)NC(=Nc1cc(C)ccc1C)N1CCC(c2nc(C3=NOC(c4ccccc4)C3)cs2)CC1 (stereo not drawn) [compound 27] | 58 | 99 | 4 | –
Cc1ccc(C)c(N=C(NC#N)N2CCC(c3nc(C4=NOC(c5c(F)cccc5F)C4)cs3)CC2)c1 (stereo not drawn) [compound 42] | 99 | 100 | 99 | –
CC(C)C(=O)C(=O)N1CCC(c2nc(C3=NOC(c4c(F)cccc4F)C3)cs2)CC1 (stereo not drawn) [compound 68] | 93 | 100 | 99 | –
CCC(O)C(=O)N1CCC(c2nc(C3=NOC(c4c(F)cccc4F)C3)cs2)CC1 (stereo not drawn) [compound 48] | 91 | 100 | 88 | –
CCNC(=O)N1CCC(c2nc(C3=NOC(c4ccccc4)C3)cs2)CC1 (stereo not drawn) [compound 13] | – | – | – | Test C rating (% disease control) (Phytophthora infestans [1]; [3]): 0%; Test B rating (% disease control) (Phytophthora infestans [2]; [3]): 99%; Test A rating (% disease control) (Plasmopara viticola; [3]): 57%
